{"source": "patent US20160209428A1", "about": "“DIAGNOSTIC AND PREDICTIVE METABOLITE PATTERNS FOR DISORDERS AFFECTING THE BRAIN AND NERVOUS SYSTEM” (THE REGENTS OF THE UNIVERSITY OF CALIFORNIA, priority 2013, published 2016)", "key": {"[1]": {"test_system": "Fragile X (Fmr1) knockout mouse", "assay": "Marble burying, Fragile X model", "assay_type": "in vivo", "conditions": "KO-Sal v KO-Sur", "procedure": "Marble burying behavior was measured over 30 minutes by a modification of methods used by Thomas, et al. (Thomas et al., 2009). Marble burying was used as a measure of normal rodent digging behavior. Marble burying has sometimes been considered a measure of anxiety, however, comprehensive genetic and behavioral studies have shown that marble burying is a normal mouse behavior that is genetically determined (Thomas et al., 2009). Marble burying was diminished 38% in Fragile X knockout mice."}, "[2]": {"test_system": "maternal immune activation (MIA) mouse model", "assay": "Plasma metabolomics after single-dose suramin or saline, MIA model", "assay_type": "in vivo", "conditions": "for Pathway normalized by single-dose suramin treatment: MIA mice", "procedure": "Only male animals that had been behaviorally evaluated were tested. Samples were analyzed on an AB SCIEX QTRAP 5500 triple quadrupole mass spectrometer equipped with a Turbo V electrospray ionization source, Shimadzu LC-20A UHPLC system and a PAL CTC autosampler (AB SCIEX). […] Plasma was separated by centrifugation at 600 g×5 min at 20° C. within 1 h of collection. Fresh lithium-heparin plasma was transferred to labeled tubes for storage at −80° C. for analysis. Typically, 45 μl of plasma was thawed on ice and transferred to a 1.7-ml Eppendorf tube. Two and one-half (2.5) microliters of a cocktail containing 35 commercial stable isotope internal standards and 2.5 μl of 310 stable isotope internal standards that were custom-synthesized in Escherichia coli and Saccharomyces cerevisiae by metabolic labeling with ^13C-glucose and ^13C-bicarbonate were added, mixed and incubated for 10 min at 20° C. to permit small molecules and vitamins in the internal standards to associate with plasma-binding proteins. Macromolecules (protein, DNA, RNA and so on) were precipitated by extraction with 4 volumes (200 μl) of cold (−20° C.), acetonitrile:methanol (50:50) (LCMS grade, Cat no. LC015-2.5 and GC230-4, Burdick & Jackson, Honeywell, Muskegon, Mich., USA), vortexed vigorously and incubated on crushed ice for 10 min, and then removed with centrifugation at 16000 g×10 min at 4° C. The supernatants containing the extracted metabolites and internal standards in the resulting 40:40:20 solvent mix of acetonitrile:methanol:water were transferred to labeled cryotubes and stored at −80° C. for LC-MS/MS (liquid chromatography-tandem mass spectrometry) analysis.\nLC-MS/MS analysis was performed by MRM under the Analyst v1.6.1 software control in both negative and positive modes with rapid polarity switching (50 ms). Nitrogen was used for curtain gas (set to 30), collision gas (set to high) and ion source gases 1 and 2 (set to 35). The source temperature was 500° C. Spray voltage was set to −4500V in negative mode and to 5500V in positive mode. The values for Q1 and Q3 mass-to-charge ratios (mz−1), declustering potential, entrance potential, collision energy and collision cell exit potential were determined and optimized for each MRM for each metabolite. Ten microliters of extract were injected with PAL CTC autosampler into a 250 mm×2.1 mm, 5-μm Luna NH2 aminopropyl HPLC column (Phenomenex) held at 25° C. for chromatographic separation. […] The flow rate was 300 μl min^−1. All the samples were kept at 4° C. during analysis. The chromatographic peaks were identified using MultiQuant v2.1.1 (AB SCIEX), confirmed by manual inspection and the peak areas were integrated. The median of the peak area of stable isotope internal standards was calculated and used for the normalization of metabolite concentration across the samples and batches. N=6, 6.5-month-old males per group. Metabolite data were log-transformed before multivariate and univariate analyses.\nGroup means and s.e.m. are reported. Behavioral data involving more than two groups were analyzed by two-way analysis of variance (ANOVA) and one-way ANOVAs (GraphPad Prism 5.0d, GraphPad Software Inc., La Jolla, Calif., USA). Pair-wise post hoc testing was performed by the method of Tukey. Repeated measures ANOVA with prenatal treatment and drug as between subject factors and stimulus (mouse/cup) on time spent with mouse or cup was used as an additional test of social preference. Student's t-test was used for comparisons involving the two groups. Significance was set at P<0.05. Bonferroni post hoc correction was used to control for multiple hypothesis testing when t-tests were used to test social preference in two or more experimental groups. Metabolomic data were analyzed using multivariate partial least squares discriminant analysis, Ward hierarchical clustering and univariate one-way ANOVA with pairwise comparisons and post hoc correction by Fisher's least significant difference test in MetaboAnalyst."}}, "note": "Entries after “also recorded” stand apart in the source; their conditions may differ."}
{"compound": "Cc1ccc(C(=O)Nc2ccc(S(=O)(=O)O)c3cc(S(=O)(=O)O)cc(S(=O)(=O)O)c23)cc1NC(=O)c1cccc(NC(=O)Nc2cccc(C(=O)Nc3cc(C(=O)Nc4ccc(S(=O)(=O)O)c5cc(S(=O)(=O)O)cc(S(=O)(=O)O)c45)ccc3C)c2)c1", "note": "[Suramin, suramin]", "values": [{"measurement": "diminished marble burying", "setting": "[1]", "value": "improved"}, {"measurement": "Pathways normalized by single-dose suramin treatment, all disturbed pathways", "setting": "[2]; 17/18 pathways disturbed in the MIA model, plasma", "value": "94% (17/18)"}, {"measurement": "Pathway normalized by single-dose suramin treatment", "setting": "[2]; Amino-sugar and galactose metabolism, plasma", "value": "Yes (1/1)"}, {"measurement": "Pathway normalized by single-dose suramin treatment", "setting": "[2]; Bile salt metabolism, plasma", "value": "No (0/3)"}, {"measurement": "Pathway normalized by single-dose suramin treatment", "setting": "[2]; Biopterin, neopterin, molybdopterin metabolism, plasma", "value": "Yes (1/1)"}, {"measurement": "Pathway normalized by single-dose suramin treatment", "setting": "[2]; Cholesterol, cortisol, steroid metabolism, plasma", "value": "Yes (4/4)"}, {"measurement": "Pathway normalized by single-dose suramin treatment", "setting": "[2]; GABA, glutamate, arginine, omithine, proline metabolism, plasma", "value": "Yes (1/1)"}, {"measurement": "Pathway normalized by single-dose suramin treatment", "setting": "[2]; Glycolysis and gluconeogenesis, plasma", "value": "Yes (3/3)"}, {"measurement": "Pathway normalized by single-dose suramin treatment", "setting": "[2]; Krebs cycle, plasma", "value": "Yes (2/2)"}, {"measurement": "bile salt pathway disturbance", "setting": "[2]; MIA model", "value": "not restored"}, {"measurement": "Pathway normalized by single-dose suramin treatment", "setting": "[2]; Microbiome metabolism, plasma", "value": "Yes (6/6)"}, {"measurement": "Pathway normalized by single-dose suramin treatment", "setting": "[2]; Oxalate, glyxoylate metabolism, plasma", "value": "Yes (2/2)"}, {"measurement": "Pathway normalized by single-dose suramin treatment", "setting": "[2]; Phospholipid metabolism, plasma", "value": "Yes (4/4)"}, {"measurement": "Pathway normalized by single-dose suramin treatment", "setting": "[2]; Purine metabolism, (metabolites normalized/discriminating), plasma 2 days after single dose", "value": "Yes (9/11)"}, {"measurement": "Pathway normalized by single-dose suramin treatment", "setting": "[2]; Pyrimidine metabolism, plasma", "value": "Yes (1/1)"}, {"measurement": "Pathway normalized by single-dose suramin treatment", "setting": "[2]; SAM, SAH, methionine, cysteine, glutathione metabolism, plasma", "value": "Yes (1/1)"}, {"measurement": "Pathway normalized by single-dose suramin treatment", "setting": "[2]; Sphingolipid metabolism, plasma", "value": "Yes (4/4)"}, {"measurement": "Pathway normalized by single-dose suramin treatment", "setting": "[2]; Thyroxine metabolism, plasma", "value": "Yes (1/1)"}, {"measurement": "Pathway normalized by single-dose suramin treatment", "setting": "[2]; Tryptophan metabolism, plasma", "value": "Yes (1/1)"}, {"measurement": "Pathway normalized by single-dose suramin treatment", "setting": "[2]; Vitamin B2 (riboflavin) metabolism, plasma", "value": "Yes (1/1)"}, {"measurement": "Pathway normalized by single-dose suramin treatment", "setting": "[2]; Vitamin B3 (niacin/NAD) metabolism, plasma", "value": "Yes (1/1)"}, {"measurement": "differences in metabolic profile between control and MIA animals", "setting": "[2]; plasma 2 days after single dose suramin 20 mg kg^−1 i.p.", "value": "substantially normalized; also recorded: drives the metabolism of MIA animals (PIC-Sal) strongly in the direction of controls"}]}
